Laboratory results taken from patent US20230086706A1, “Compounds for promoting follicle maturation” (Aarhus Universitet, priority 2020, published 2023).

Columns and labels:
[1] = system: ID8 Mouse Ovarian Surface Epithelial Cell Line; test: Toxicity assay (cell morphology by light microscopy); type: cell-based; conditions: 1 μM compound, cells grown for 2 days, morphology checked using light microscopy
Procedure: Immediately, 1 μM compound was added to the media and cells were grown for 2 days and morphology checked using light microscopy.

[2] = system: ovaries (primordial, primary and secondary follicles); test: Evaluation of follicle numbers after ovary organ culture with compound; type: cell-based, C57BL/6j×CBA F1 hybrid mice; conditions: ovaries of 7-day-old female pups cultured four days; 0.5 μM and 1 μM for 582 and 583, 25 μM for 798 and 798 (so in the source)
Procedure: C57BL/6j×CBA F1 hybrid mice (Janvier Labs, France) were housed and bred in the animal facilities at Department of Biomedicine, Aarhus University. Animals were housed in a 12:12 h controlled light-dark environment and were provided with food and water ad libitum. 7-day-old female pups were used for the study.
Pups were sacrificed and ovaries were excised. Using a stereomicroscope MZ75 (Leica Microsystems, Germany), excess tissue was removed. […] 200-300 μL of culture medium was added to the well below the insert and up to two ovaries were placed on the membrane of each insert. […] Up to six wells in the 24-well plate were used for inserts. […] The ovaries were cultured at 37° C., 5% CO2 for four days. 150 μL of medium was replaced every other day with fresh culture medium.
Ovaries kept in organ culture for four days were fixed for 24 hours in 4% paraformaldehyde solution at 4° C. After fixation, ovaries were dehydrated in ethanol series using 70%, 96% and 99.9% ethanol. Xylene was used as clearing agent before the ovaries were infiltrated in paraffin wax. 5 μm-sections of samples in paraffin were cut using a microtome (Cut 6062, SLEE medical, Germany). […] The samples were then rinsed in dH2O, stained in hematoxylin for 40 sec., rinsed in dH2O for 5 min., and stained in eosin for 46 sec. The samples were dehydrated in ethanol: 2×2 min. in 96% ethanol, 2×2 min in 99.9% ethanol, and finally cleared up in xylene for at least 30 min before mounting the samples using Eukitt mounting medium (Sigma-Aldrich) and cover glass. […] The follicles of every 3rd to 4th section of each ovary were counted and the distribution of follicles in the different stages in percentage was determined.

Structure (SMILES)	toxicity to the grown cells / alteration of the morphology of the cells [1]	overall appearance and size of the ovaries in culture (visual inspection of ovarian sections) [2]
NC(=O)c1ccc[n+](Cc2ccccc2)c1 [Compound 582, 1-benzyl-3-carbamoylpyridin-1-ium]	not to alter the morphology of the cells nor to be toxic to the grown cells	healthy and the size was normal, no shrinkage was observed
C[n+]1cccc(C(N)=O)c1 [Compound 583, 3-carbamoyl-1-methylpyridin-1-ium]	not to alter the morphology of the cells nor to be toxic to the grown cells	healthy and the size was normal, no shrinkage was observed
NC(=O)c1ccc[n+](C2CCOCC2)c1 [Compound 798, 3-carbamoyl-1-(tetrahydro-2H-pyran-4-yl)pyridin-1-ium]	not to alter the morphology of the cells nor to be toxic to the grown cells	healthy and the size was normal, no shrinkage was observed
CC1=C2C[C@H]3[C@@H](CC=C4C[C@@H](O)CC[C@@]43C)[C@@H]2CC[C@]12O[C@@H]1C[C@H](C)CN[C@H]1[C@H]2C [cyclopamine, Cyclopamine, reference compound]	not to alter the morphology of the cells nor to be toxic to the grown cells	
